Measured values taken from patent US10111874B2, “Combination therapies for treatment of cancer” (Araxes Pharma LLC, priority 2014, dated 2018).

Target: T1, KRAS G12C 1-169, his-tagged protein, GDP-loaded (Homo sapiens, UniProt P01116, G12C)
T1 construct: KRAS G12C 1-169, his-tagged protein, GDP-loaded
Assay: Biochemical assay: covalent binding to KRAS G12C analyzed by mass spectrometry; note: test concentration or dose not given here
Details: compounds 1-47, measured at 24 h

T1 sequence (P01116 1-169 isoform P01116-2 G12C): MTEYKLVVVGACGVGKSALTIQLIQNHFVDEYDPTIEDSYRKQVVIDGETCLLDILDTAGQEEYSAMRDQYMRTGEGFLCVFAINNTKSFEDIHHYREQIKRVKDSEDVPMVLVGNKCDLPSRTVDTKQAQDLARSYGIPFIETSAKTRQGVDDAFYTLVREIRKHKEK

SMILES | Binding %
C=CC(=O)N1CCN(c2ncnc3cc(Cl)c(-c4ccccc4O)cc23)CC1 [Compound I-15, 1-(4-(7-chloro-6-(2-hydroxyphenyl)quinoazlin-4-yl)piperazin-1-yl)prop-2-en-1-one] | +++ (+++indicates binding activity greater than 50% and up to 75%)
C=CC(=O)N1CCC(c2ncnc3cc(Cl)c(-c4ccccc4Cl)cc23)CC1 [Compound I-36, 1-(4-(7-chloro-6-(2-chlorophenyl)quinazolin-4-yl)piperidin-1-yl)prop-2-en-1-one] | + (+indicates binding activity from 5% to 25%)
C=CC(=O)N1CCN(c2ncnc3cc(Cl)c(-c4cccc(Cl)c4)cc23)CC1 [Compound I-5, 1-(4-(7-chloro-6-(3-chlorophenyl)quinazolin-4-yl)piperazin-1-yl)prop-2-en-1-one] | +++ (+++indicates binding activity greater than 50% and up to 75%)

Same assay, conditions: compounds 48-246, measured at 2 h

SMILES | Binding %
C=CC(=O)N1CCN(c2ncnc3cc(-c4cccc5ncccc45)c(Cl)cc23)CC1 [Compound I-135, 1-(4-(6-chloro-7-(quinolin-5-yl)quinazolin-4-yl)piperazin-1-yl)prop-2-en-1-one] | + (+indicates binding activity from 5% to 25%)
C=CC(=O)N1CCN(c2ncnc3cc(-c4ccccc4OC)c(Cl)cc23)CC1 [Compound I-97, 1-(4-(6-chloro-7-(2-methoxyphenyl)quinazolin-4-yl)piperazin-1-yl)prop-2-en-1-one] | ++ (++indicates binding activity greater than 25% and up to 50%)
C=CC(=O)N1CCN(c2ncnc3cc(Cl)c(-c4ccc(Cl)cc4)cc23)C[C@@H]1CO [Compound I-65, (R)-1-(4-(7-chloro-6-(4-chlorophenyl)quinazolin-4-yl)-2-(hydroxymethyl)piperazin-1-yl)prop-2-en-1-one] | + (+indicates binding activity from 5% to 25%)
C=CC(=O)Nc1ncc(C)c(-c2cc3ncnc(N4CCN(C(=O)C=C)CC4)c3cc2Cl)n1 [Compound I-178, N-(4-(4-(4-acryloylpiperazin-1-yl)-6-chloroquinazolin-7-yl)-5-methylpyrimidin-2-yl)acrylamide] | + (+indicates binding activity from 5% to 25%)
C=CC(=O)N1CCN(c2c(C#N)cnc3cc(-c4ccccc4F)c(Cl)cc23)CC1 [Compound I-127] | ++++ (++++indicates binding activity greater than 75%)
C=CC(=O)N1CCN(c2ncnc3cc(-c4ccccc4Cl)c(Cl)cc23)CC1CC#N (centres unmarked) [Compound I-109, 2-(1-acryloyl-4-(6-chloro-7-(2-chlorophenyl)quinazolin-4-yl)piperazin-2-yl)acetonitrile] | ++++ (++++indicates binding activity greater than 75%)
C=CC(=O)N1CCN(c2c(C#N)cnc3cc(-c4c(O)cccc4F)c(Cl)cc23)CC1 [Compound I-220, 4-(4-acryloylpiperazin-- yl)-6-chloro-7-(2-fluoro-6-hydroxyphenyl)quinoline-3-carbonitrile] | +++ (+++indicates binding activity greater than 50% and up to 75%)
C=CC(=O)N1CCN(c2ncnc3cc(-c4ccccc4O)c(Cl)cc23)CC1C#N (centres unmarked) [Compound I-146, 1-acryloyl-4-(6-chloro-7-(2-hydroxyphenyl)quinazolin-4-yl)piperazine-2-carbonitrile] | ++++ (++++indicates binding activity greater than 75%)
C=CC(=O)N1CCN(c2ncnc3c(F)c(-c4c(O)cccc4F)c(Cl)cc23)CC1 [Compound I-227, 1-(4-(6-chloro-8-fluoro-7-(2-fluoro-6-hydroxyphenyl)quinazolin-4-yl)piperazin-1-yl)prop-2-en-1-one] | ++++ (++++indicates binding activity greater than 75%)
C=CC(=O)N1CCN(c2ncnc3cc(-c4cccc5c4CCC(=O)N5)c(Cl)cc23)CC1 [Compound I-205, 5-(4-(4-acryloylpiperazin-1-yl)-6-chloroquinazolin-7-yl)-3,4-dihydroquinolin-2(1H)-one] | + (+indicates binding activity from 5% to 25%)
C=CC(=O)N1CCN(c2c(C#N)cnc3cc(-c4ccc(F)cc4F)c(Cl)cc23)CC1 [Compound I-172, 4-(4-acryloylpiperazin-1-yl)-6-chloro-7-(2,4-difluorophenyl)quinolin-3-carbonitrile] | +++ (+++indicates binding activity greater than 50% and up to 75%)
C=CC(=O)N1CCN(c2c(C#N)cnc3cc(-c4cc(O)ccc4F)c(Cl)cc23)CC1 [Compound I-196, 4-(4-acryloylpiperazin-1-yl)-6-chloro-7-(2-fluoro-5-hydroxyphenyl)quinoline-3-carbonitrile] | ++++ (++++indicates binding activity greater than 75%)
C=CC(=O)NC1CCN(c2ncnc3cc(-c4ccccc4)c(Cl)cc23)CC1 [Compound I-89, N-(1-(6-chloro-7-phenylquinazolin-4-yl)piperidin-4-yl)acrylamide] | + (+indicates binding activity from 5% to 25%)
C=CC(=O)N1CCN(c2ncnc3cc(Cl)c(-c4ccc(Cl)cc4)cc23)C[C@@H]1C#N [Compound I-58, (R)-1-acryloyl-4-(7-chloro-6-(4-chlorophenyl)quinazolin-4-yl)piperazine-2-carbonitrile] | +++ (+++indicates binding activity greater than 50% and up to 75%)
C=CC(=O)N1CCN(c2ncnc3cc(-c4ccccc4Cl)c(Cl)cc23)CC1 [Compound I-72, 1-(4-(6-chloro-7-(2-chlorophenyl)quinazolin-4-yl)piperazin-1-yl)prop-2-en-1-one] | ++ (++indicates binding activity greater than 25% and up to 50%)

Same assay, conditions: compounds 247-342, measured at 30 min

SMILES | Binding %
C=CC(=O)N1CCN(c2ncnc3c(F)c(-c4c(C)ccc5[nH]nc(F)c45)c(Cl)cc23)CC1 [Compound 340, 1-(4-(6-chloro-8-fluoro-7-(3-fluoro-5-methyl-1H-indazol-4-yl)quinazolin-4-yl)piperazin-1-yl)prop-2-en-1-one] | ++++ (++++indicates binding activity greater than 75%)
C=CC(=O)N1CCN(c2ncnc3cc(-c4cc(O)cc5ccccc45)c(Cl)cc23)CC1 [Compound I-251, 1-(4-(6-chloro-7-(3-hydroxynaphthalen-1-yl)quinazolin-4-yl)piperazin-1-yl)prop-2-en-1-one] | ++++ (++++indicates binding activity greater than 75%)
C=CC(=O)N1CCN(c2ncnc3c(F)c(-c4c(C)ccc5[nH]ncc45)c(Cl)cc23)CC1CO (centres unmarked) [Compound 320, 1-(4-(6-chloro-8-fluoro-7-(5-methyl-1H-indazol-4-yl)quinazolin-4-yl)-2-(hydroxymethyl)piperazin-1-yl)prop-2-en-1-one] | ++ (++indicates binding activity greater than 25% and up to 50%)
C=CC(=O)N1CCN(c2c(C#N)cnc3c(F)c(-c4ccccc4C(F)(F)F)c(Cl)cc23)CC1 [Compound I-285, 4-(4-acryloylpiperazin-1-yl)-6-chloro-8-fluoro-7-(2-(trifluoromethyl)phenyl) quinoline-3-carbonitrile] | +++ (+++indicates binding activity greater than 50% and up to 75%)
C=CC(=O)N1CCN(c2cnnc3cc(-c4c(C)ccc5[nH]ncc45)c(C(F)(F)F)cc23)CC1 [Compound 305, 1-(4-(7-(5-methyl-1H-indazol-4-yl)-6-(trifluoromethyl)cinnolin-4-yl)piperazin-1-yl)prop-2-en-1-one] | ++ (++indicates binding activity greater than 25% and up to 50%)
C=CC(=O)N1CCN(c2ncnc3c(O)c(-c4ccc(F)cc4F)c(Cl)cc23)CC1 [Compound 321, 1-(4-(6-chloro-7-(2,4-difluorophenyl)-8-hydroxyquinazolin-4-yl)piperazin-1-yl)prop-2-en-1-one] | + (+indicates binding activity from 5% to 25%)
C=CC(=O)N1CCN(c2cnnc3cc(-c4c(O)cccc4F)c(C(F)(F)F)cc23)CC1 [Compound I-279, 1-(4-(7-(2-fluoro-6-hydroxyphenyl)-6-(trifluoromethyl)cinnolin-4-yl)piperazin-1-yl)prop-2-en-1-one] | +++ (+++indicates binding activity greater than 50% and up to 75%)
C=CC(=O)N1CCN(c2ncnc3c(F)c(-c4cc(-c5c[nH]cn5)ccc4F)c(Cl)cc23)CC1 [Compound I-281, 1-(4-(6-chloro-8-fluoro-7-(2-fluoro-5-(1H-imidazol-4-yl)phenyl)quinazolin-4-yl)piperazin-1-yl)prop-2-en-1-one] | ++ (++indicates binding activity greater than 25% and up to 50%)
C=CC(=O)N1CCN(c2ncnc3c(Cl)c(-c4c(O)ccc5ccccc45)c(Cl)cc23)CC1 [Compound 303, 1-(4-(6,8-dichloro-7-(2-hydroxynaphthalen-1-yl)quinazolin-4-yl)piperazin-1-yl)prop-2-en-1-one] | ++ (++indicates binding activity greater than 25% and up to 50%)

Same assay, conditions: determined at 2 hrs

SMILES | Binding %
C=CC(=O)N1CC(N2CCN(C(=O)Cn3ccc4c(Cl)c(Cl)cc(OC)c43)CC2)C1 [II-75, 1-(3-(4-(2-(4,5-dichloro-7-methoxy-1H-indol-1-yl)acetyl)piperazin-1-yl)azetidin-1-yl)prop-2-en-1-one] | + (+indicates binding activity from 5% to 20%)

Same assay, conditions: determined at 24 hrs

SMILES | Binding %
C=CC(=O)N1CC(N2CCN(C(=O)CCn3c(=O)[nH]c4cc(Cl)c(Cl)cc43)CC2)C1 [II-21, 1-(3-(4-(1-acryloylazetidin-3-yl)piperazin-1-yl)-3-oxopropyl)-5,6-dichloro-1H-benzo[d]imidazol-2(3H)-one] | + (+indicates binding activity from 5% to 15%)
C=CC(=O)N1CC(N2CCN(C(=O)CNc3cc(S(C)(=O)=O)ccc3O)CC2)C1 [II-34, 1-(3-(4-(2-(2-hydroxy-5-(methylsulfonyl)-phenylamino)acetyl)-piperazin-1-yl)azetidin-1-yl)prop-2-en-1-one] | + (+indicates binding activity from 5% to 15%)
C=CC(=O)N1CC(N2CCN(C(=O)CNc3cc(O)c(Cl)cc3Cl)CC2)C1 [II-23, 1-(3-(4-(2-(2,4-dichloro-5-hydroxyphenyl-amino)acetyl)piperazin-1-yl)azetidin-1-yl)prop-2-en-1-one] | + (+indicates binding activity from 5% to 15%)
C=CC(=O)N1CCC(N2CCN(C(=O)CNc3cc(Cl)c(Cl)cc3O)CC2)C1 (centres unmarked) [II-2, 1-(3-(4-(2-(4,5-dichloro-2-hydroxyphenyl-amino)acetyl)piperazin-1-yl)pyrrolidin-1-yl)prop-2-en-1-one] | +++ (+++indicates binding activity greater than 25% and up to 50%)
